Values quoted from earlier work as cited in US20070237796A1, “Stable High Pl Hydrogel Compositions” (priority 2003, published 2007).

Details: not given

Compound | pKa
O=C[C@H](O)[C@@H](O)[C@@H](O)[C@H](O)CO [Galactose] | 12.39
OC[C@H]1O[C@@H](O[C@H]2[C@H](O)[C@@H](O)C(O)O[C@@H]2CO)[C@H](O)[C@@H](O)[C@H]1O (stereo partly drawn) [Lactose] | 11.98

The next lines start with the values.

pKa | Compound
12.15 | O=C[C@H](O)[C@@H](O)[C@H](O)CO [Xylose]
13.71 | CO[C@H]1O[C@H](CO)[C@@H](O)[C@H](O)[C@H]1O [α-Methyl glucoside]

Same assay, conditions: secondary OH

Compound | pKa
OC[C@H]1O[C@@H]2O[C@H]3[C@H](O)[C@@H](O)[C@@H](O[C@H]4[C@H](O)[C@@H](O)[C@@H](O[C@H]5[C@H](O)[C@@H](O)[C@@H](O[C@H]6[C@H](O)[C@@H](O)[C@@H](O[C@H]7[C@H](O)[C@@H](O)[C@@H](O[C@H]8[C@H](O)[C@@H](O)[C@@H](O[C@H]1[C@H](O)[C@H]2O)O[C@@H]8CO)O[C@@H]7CO)O[C@@H]6CO)O[C@@H]5CO)O[C@@H]4CO)O[C@@H]3CO [β-cyclodextrin] | 12.20 (secondary OH)
OC[C@H]1O[C@@H]2O[C@H]3[C@H](O)[C@@H](O)[C@@H](O[C@H]4[C@H](O)[C@@H](O)[C@@H](O[C@H]5[C@H](O)[C@@H](O)[C@@H](O[C@H]6[C@H](O)[C@@H](O)[C@@H](O[C@H]7[C@H](O)[C@@H](O)[C@@H](O[C@H]8[C@H](O)[C@@H](O)[C@@H](O[C@H]9[C@H](O)[C@@H](O)[C@@H](O[C@H]1[C@H](O)[C@H]2O)O[C@@H]9CO)O[C@@H]8CO)O[C@@H]7CO)O[C@@H]6CO)O[C@@H]5CO)O[C@@H]4CO)O[C@@H]3CO [γ-cyclodextrin] | 12.05 (secondary OH)
